Experimental data as given in patent US5846988A, “Thiazolidine-4-carboxylic acid derivatives as cytoprotective agents” (Alcon Laboratories, Inc., priority 1997, dated 1998).
Like-named read-outs stand apart in the source and are kept apart here.

Assays:
[1] = tested on: bovine retinal pieces; experiment: Inhibition of lipid peroxide formation (TBARS) in hypoxic/reoxygenated bovine retinal pieces; assay type: cell-based; conditions: Bos taurus, hypoxia 1 h, test agent added after 50 min, reoxygenation 1 h; for inhibition at 100 µM: 0.1 mM, read-out: % Inhibition of TBARS Production (0.1 mM); for IC50: read-out: IC50 (inhibition of TBARS production)
Method: (§1) Evaluation of Cytoprotective Ability
Inhibition of lipid peroxide formation by representative compounds of the present invention as compared with the cysteine prodrug, 2-oxo-4-thiazolidine carboxylic acid, (Sigma Chemical Company, St Louis Mo.) is shown in Table 1 below. The cytoprotective effect of the compound was measured using bovine retinal pieces. Retinal tissues were incubated in hypoxic media for 1 h. After 50 min. of hypoxia the test agents were added to the media to allow 10 min. for the drug to diffuse into the tissue prior to reoxygenation. The vehicle by itself, was added to the non-drug group. Following the incubation period, tissue was reoxygenated for 1 h. Lipid peroxidation was assessed by the formation of thiobarbituric acid reacting substances (TBARS). The tissues were homogenized and added to the trichloroacetic acid-thiobarbituric acid reagent and heated in the presence of BHT. The homogenate was filtered and the absorbance of the supernant was measured spectrophotometrically. A double derivative technique was used to calculate the concentration of TBARS present in each sample. Quantiation was based on a molar extinction coefficient of 1.56×10^5.

[2] = tested on: excised pigmented rabbit lenses; experiment: Inhibition of lens changes caused by oxidative damage (diquat-exposed excised pigmented rabbit lenses; GSH loss and MDA formation); assay type: cell-based; conditions: Oryctolagus cuniculus, 1 mM test compound, 1 mM diquat, 3 h at 37° C.
Method: as §1
Inhibition of lens changes caused by oxidative damage by representative compounds of the present invention as compared with the cysteine prodrug, 2-oxo-4-thiazolidine carboxylic acid, (Sigma Chemical Company, St Louis Mo.) is shown in Table 2 below. The cytoprotective effect was measured using excised pigmented rabbit lenses exposed to diquat using the method of Bhuyan (Free Radical Biology & Medicine, volume 12, pages 251-261, 1992). Normal lenses were extracted from the eyes immediately after sacrificing the pigmented rabbits. The lens were incubated in modified Krebs-Ringers bicarbonate medium containing 1 mM diquat dibromide monohydrate (Imperial Chemical Industries Ltd., London) and the test compound (1 mM). A non-test drug containing group was used as control. The lenses were incubated for 3 h at 37° C. in a shaking water bath. At the end of the incubation period each lens was removed and homogenated. Glutathione (GSH) and maliondialdehyde (MDA) levels were established by treating the supernatant with trichloracetic acid to precipitate proteins, and then using aliquots of the TCA supernatant to determine glutathione and MDA levels according to standard procedures. Degree of protection was measured as inhibition of GSH loss and inhibition of malondialdehyde formation.

[3] = read-out: % Inhibition GSH loss
[4] = read-out: % Inhibition MDA formation

| IC50 [1] [nM] | Structure (SMILES) | inhibition at 100 µM [1] [%] | inhibition at 1000 µM [2, 3] [%] | inhibition at 1000 µM [2, 4] [%] |
| --- | --- | --- | --- | --- |
| 50 | CC(C)(C)c1cc(C2N[C@H](C(=O)O)CS2)cc(C(C)(C)C)c1O (stereo partly drawn) [Example 1, (4R)-2-(3,5-di-tert-butyl-4-hydroxyphenyl)-4-thiazolidine carboxylic acid] | 95 | 40 | 76 |
| 3000 | Cc1c(C)c2c(c(C)c1O)CCC(C)(C1N[C@H](C(=O)O)CS1)O2 (stereo partly drawn) [Example 2, (4R)-2-(6-hydroxy-2,5,7,8-tetramethyl-3,4-dihydro-2H-benzo[1,2-b]pyran-2-yl)-4-thiazolidine carboxylic acid] | 90 |  |  |
|  | O=C1NC(C(=O)O)CS1 (stereo not drawn) [2-oxo-4-thiazolidine carboxylic acid, reference compound] | -38 | 9.4 | 28 |
